The compounds below were run on ACAT (assay: ACAT inhibitory activity (rabbit liver microsomal fraction)). Conditions: [1-14C]oleyl-CoA and exogenous cholesterol.
Type: biochemical, Japanese-White Rabbit
Procedure: Enzyme specimen ACAT is prepared from liver microsomal fraction of Japanese-White Rabbit in accordance with the method described in Smith et al., Clinica Chimica Acta, 158, 271 (1986). The ACAT activity is determined by measuring the amount of labeled cholesterol esters from [1-^14 C]oleyl-CoA and exogenous cholesterol also according to the method of Smith et al., ibid. Thus, inhibition rates (%) of the compounds of the present invention against ACAT at a concentration of 0.3 μM are shown in the following table, together with the results of Melinamide (N-(α-methylbenzyl)linoleamide) and YM-17E (1,3-bis[[1-cycloheptyl-3-(p-dimethylaminophenyl)ureido]methyl]-benzene dihydrochloride), as reference compounds, measured at the same time.

SMILES | Inhibition Rate at 0.3 μM
CCCCCN(C/C=C/C#CC(C)(C)C)CCNC(=O)CSc1cccc2ccccc12 [Example 1, (E)-N-[2-[N'-Pentyl-(6,6-dimethyl-2-hepten-4-ynyl)amino]ethyl]-(1-naphthylthio)acetamide] | 70%
CCCCCN(CC#CC#CC(C)(C)C)CCNC(=O)CSc1cccc2ccccc12 [Example 2, N-[2-[N'-Pentyl-(6,6-dimethyl-2,4-heptadiynyl)amino]ethyl]-(1-naphthylthio)acetamide] | 76%
CCCCCN(CCCC#CC(C)(C)C)CCNC(=O)CSc1cccc2ccccc12 [Example 3, N-[2-[N'-Pentyl-(6,6-dimethyl-4-heptynyl)amino]ethyl]-(1-naphthylthio)acetamide] | 68%
CCCCCN(CC#CC#CC(C)(C)C)CCNC(=O)CSc1ccc2ccccc2c1 [Example 4, N-[2-[N'-Pentyl-(6,6-dimethyl-2,4-heptadiynyl)amino]ethyl]-(2-napthylthio)acetamide] | 78%
CCCCCN(CC#CC#CC(C)(C)C)CCNC(=O)CSc1ccc(C)c(C)c1 [Example 10, N-[2-[N'-Pentyl-(6,6-dimethyl-2,4-heptadiynyl)amino]ethyl]-(3,4-dimethylphenylthio)acetamide] | 84%
CCCCCN(CC#CC#CC(C)(C)C)CCNC(=O)CSc1c(C)cccc1C [Example 11, N-[2-[N'-Pentyl-(6,6-dimethyl-2,4-heptadiynyl)amino]ethyl]-(2,6-dimethylphenylthio)acetamide] | 87%
CCCCCN(CC#CC#CC(C)(C)C)CCNC(=O)CSc1ccc2oc3ccccc3c2c1 [Example 24, N-[2-[N'-Pentyl-(6,6-dimethyl-2,4-heptadiynyl)amino]ethyl]-(2-dibenzofuranylthio)acetamide] | 64%
CCCCCN(CC#CC#CC(C)(C)C)CCNC(=O)CSc1c2ccccc2cc2ccccc12 [Example 26, N-[2-[N'-Pentyl-(6,6-dimethyl-2,4-heptadiynyl)amino]ethyl]-(9-anthrylthio)acetamide] | 66%
CCCCCN(CC#CC#CC(C)(C)C)CCNC(=O)C[S+]([O-])c1cccc2ccccc12 (stereo not shown) [Example 29, N-[2-[N'-Pentyl-(6,6-dimethyl-2,4-heptadiynyl)amino]ethyl]-(1-naphthylsulfinyl)acetamide] | 70%
CCCCCN(CC#CC#CC(C)(C)C)CCNC(=O)CS(=O)(=O)c1cccc2ccccc12 [Example 30, N-[2-[N'-Pentyl-(6,6-dimethyl-2,4-heptadiynyl)amino]ethyl]-(1-naphthylsulfonyl)acetamide] | 75%
CCCCN(CC#CC#CC(C)(C)C)CCNC(=O)CSc1cccc2ccccc12 [Example 34, N-[2-[N'-Butyl-(6,6-dimethyl-2,4-heptadiynyl)amino]ethyl]-(1-naphthylthio)acetamide] | 61%
CC(C)CCCN(CC#CC#CC(C)(C)C)CCNC(=O)CSc1cccc2ccccc12 [Example 36, N-[2-[N'-(4-Methylpentyl)-(6,6-dimethyl-2,4-heptadiynyl)amino]ethyl]-(1-naphthylthio)acetamide] | 75%
CCCCC/C=C\C/C=C\CCCCCCCC(=O)NC(C)c1ccccc1 (stereo not drawn) [Melinamide, N-(α-methylbenzyl)linoleamide, reference compound] | 15%
CN(C)c1ccc(NC(=O)N(Cc2cccc(CN(C(=O)Nc3ccc(N(C)C)cc3)C3CCCCCC3)c2)C2CCCCCC2)cc1.Cl.Cl [YM-17E, 1,3-bis[[1-cycloheptyl-3-(p-dimethylaminophenyl)ureido]methyl]-benzene dihydrochloride, reference compound] | 50%

What follows are compounds tested on absorption of cholesterol (assay: Cholesterol absorption inhibitory activity in rat). Conditions: 100 mg/kg oral; [3H] cholesterol emulsion; serum radioactivity 4 hours after administration.
Type: in vivo, Sprague-Dawley rats
Procedure: Cholesterol absorption inhibitory activity is determined by the method described in Fukushima et al., Journal of Atherosclerosis Research, 10, 403 (1969).
That is, Sprague-Dawley rats of 7 weeks age weighing 200 to 250 g are divided into groups at random and fed for 7 days with free access to diet. Then, the compound of the present invention and [^3 H] cholesterol emulsion (suspension of 6.96 mg of cholesterol and 177 mg of triolein in 0.8 ml of 6.8% skimmed milk aqueous solution) prepared into a dose indicated are forcedly given orally (Experiment Group).
As a control group, the solvent used to suspend the compound of the present invention instead of the compound of the present invention in Experiment Group and [^3 H] cholesterol emulsion are forcedly administered orally.
Four hours after administration, blood is collected from the tail. The cholesterol absorption inhibitory activity of the compound is determined in terms of the radiation activity of [^3 H) observed in serum by comparing between the control group and the experiment group. Inhibition rate (%) at 100 mg/kg is calculated and the results are shown in the following table together with the result of YM-17E used as a reference compound.

SMILES | Inhibition Rate at 100 mg/kg
CCCCCN(C/C=C/C#CC(C)(C)C)CCNC(=O)CSc1ccc2ccccc2c1 [Example 6, (E)-N-[2-[N'-Pentyl-(6,6-dimethyl-2-hepten-4-ynyl)amino]ethyl]-(2-naphthylthio)acetamide] | 73%
CN(C)c1ccc(NC(=O)N(Cc2cccc(CN(C(=O)Nc3ccc(N(C)C)cc3)C3CCCCCC3)c2)C2CCCCCC2)cc1.Cl.Cl [YM-17E, 1,3-bis[[1-cycloheptyl-3-(p-dimethylaminophenyl)ureido]methyl]-benzene dihydrochloride, reference compound] | 63%
